Assay results from EP1202746B1, “NSAID AND EGFR KINASE INHIBITOR CONTAINING COMPOSITION FOR THE TREATMENT OR INHIBITION OF COLONIC POLYPS AND COLORECTAL CANCER” (Wyeth Holdings Corporation, priority 1999, dated 2001).

Tested on: intestinal polyps (adenomas)
Assay: Min mouse intestinal polyp test procedure emulating familial adenomatous polyps (FAP); polyps counted on day 61
Format: in vivo, Min mouse (C57BL/6J-Min/+)
Excerpt: The procedure described below emulates familial adenomatous polyps (FAP) in humans using the Min mouse (C57BL/6J-Min/+), which is a strain which has […] of the APC gene. These animals develop multiple intestinal polyps (adenomas) that ultimately progress to form adenocarcinomas. The polyps that develop in Min mice express EGFR and have activated COX-2.
Test animals were divided into four treatment groups: Group I, control; Group II, N-[4-[(3-bromophenyl)amino]-6-quinazolinyl]-2-butynamide; Group III, sulindac; and Group IV, combination of sulindac and N-[4-[(3-bromophenyl)amino]-6-quinazolinyl]-2-butynamide (hereinafter referred to as the NSAID/EGFR kinase inhibitor combination). The test compound was blended with a standard murine chow and animals were given ad libitum access to the food, in quantities corresponding to the following approximate daily dosages: Group II - 40 mg/kg/day N-[4-[(3-bromophenyl)amino]-6-quinazolinyl]-2-butynamide; […]; and Group IV - 40 mg/kg/day N-[4-[(3-bromophenyl)amino]-6-quinazolinyl]-2-butynamide and 20 mg/kg/day sulindac. The animals were treated for 60 days. The food was weighed once per week to determine consumption, and the animals also weighed weekly. On day 61, the animals were euthanized with CO2 inhalation, and the entire intestinal tract from stomach to anus was removed. The intestinal tract was injected with Bouins fixative, and allowed to fix for several days. The intestinal tracts were then opened and the number of polyps counted. Statistical analysis was performed using the Student's t-Test; a p value of ≤ 0.05 is considered statistically significant.
The animals were treated for 60 days. The food was weighed once per week to determine consumption, and the animals also weighed weekly. On day 61, the animals were euthanized with CO2 inhalation, and the entire intestinal tract from stomach to anus was removed. The intestinal tract was injected with Bouins fixative, and allowed to fix for several days. The intestinal tracts were then opened and the number of polyps counted. Statistical analysis was performed using the Student's t-Test; a p value of ≤ 0.05 is considered statistically significant.

Structure (SMILES): CCOc1cc2ncc(C#N)c(Nc3ccc(F)c(Cl)c3)c2cc1NC(=O)C=CCN(C)C [4-dimethylamino-but-2-enoic acid [4-(3-chloro-4-fluoro-phenylamino)-3-cyano-7-ethoxy-quinolin-6-yl]-amide]
- reduced polyp numbers (third run, alone, 20 mg/kg, 60 days, versus control): 87%

Structure (SMILES): CC#CC(=O)Nc1ccc2ncnc(Nc3cccc(Br)c3)c2c1 [N-[4-[(3-bromophenyl)amino]-6-quinazolinyl]-2-butynamide]
- Number of Polyps (Group II: 40 mg/kg/day in chow, 60 days, control Group I 32.3 ± 20.7): 15.6 ± 10.6

Structure (SMILES): CC1=C(CC(=O)O)c2cc(F)ccc2/C1=C\c1ccc([S+](C)[O-])cc1 (centres unmarked) [sulindac]
- Number of Polyps (Group III: 20 mg/kg/day sulindac in chow, 60 days, control Group I 32.3 ± 20.7): 10.0 ± 6.6
- Number of Polyps (third run, Group III: 5 mg/kg/day sulindac in chow, 60 days, control Group I 19.5 ± 14.1): 20.6 ± 11.8
- polyp numbers (result in words) (third run, sulindac alone at the 5mg/kg dose): did not reduce polyp numbers at all
